Measurements as given in patent US11299760B2 (Amgen Inc., priority 2013, dated 2022).

Tests used:
MAb C producing cells = test: GM130 immunofluorescence microscopy of Golgi; type: cell-based, Chinese hamster; settings: day 10; increasing monensin culminating at 100 nM from days 7-10
Protocol: (§1) On day 10, cell pellets were washed once with cold PBS and fixed in 4% paraformaldehyde for 10 minutes on ice. Cells were then washed once in again in cold PBS and stored at 4° C. until they were immunofluorescently stained as described below
(§2) Monensin is known to cause gross changes in Golgi architecture characterized by swollen and fragmented cisternae. The structure of the Golgi of CHO production cell lines after monensin treatment was analyzed using a panel of five different commercially available antibodies against various Golgi proteins with a passaging culture of recombinant cells producing MAb A using immunofluorescence microscopy.
(§3) Next, day 10 control and monensin-treated mock perfusion cultures of MAb A producing cells and MAb C producing cells were subjected to immunofluorescence microscopy using GM130 antibody. Paraformaldehyde fixed cell pellets were permeablized with 0.1% TritonX-100 made in PBS. Pellets were washed with PBSA (0.5% BSA in PBS) and incubated with GM130 antibody (BD Biosciences, San Jose, Calif.) diluted 1:50 in PBSA. Cells were washed thrice with PBSA and incubated with Alexa 488 conjugated mouse secondary antibody (Invitrogen, Grand Island, N.Y.) diluted 1:1000 in PBSA. […] Images were captured using Zeiss 510 microscope (Carl Zeiss, Inc., Jena, Germany) with 63× water immersion lens and analyzed using LSM image browser software.

MAb A producing cells = test: GM130 immunofluorescence microscopy of Golgi; type: cell-based, Chinese hamster; settings: day 10 mock perfusion cultures; monensin-treated vs control
Protocol: as §1, §2, §3

Cells producing MAb D = test: mock perfusion assay, cell culture parameters; type: cell-based, Chinese hamster; settings: for CVCD / Cumulative Titer / End of Production Viability / qP: MAb D
Protocol: Mock perfusion assay is a small scale, plate-based assay that is designed to mimic perfusion conditions in bioreactors through daily medium exchanges. For a 10-day mock perfusion assay, passaging cultures of various production cell lines were diluted 1:5 into chemically defined base perfusion medium in a 24 deep-well plate at a final volume of 3 ml per well. Mock perfusion was initiated on day 3 when the cells were spun down at 1000 rpm for 5 minutes and 25% of each spent culture medium was exchanged with the equivalent volume of fresh perfusion media. Subsequent medium exchange percentages were 40% on days 4-8 and 50% on day 9. Exchanged supernatants were stored at 4° C. prior to analysis.
Analysis of cell culture parameters was also started on day 3; viable cell density and viability were analyzed using the ViaCount Guava assay as previously described. Glucose was measured daily starting on day 3 and was maintained at 12 g/l. Stored supernatants were analyzed for antibody titer as described previously. Samples of supernatant fluid from days 6, 8 and 10 were also analyzed for the presence and type of glycans by HILIC analysis.
The cell lines used included three production cell lines that are known to generate mAbs with low high mannose glycans (MAb A, MAb B and MAb C) and one production cell line that consistently produces product with high levels of high mannose glycans (MAb D). […] Equivalent volumes of methanol were added daily to control cultures (columns 1 and 2 of the 24-well plate). This scheme is depicted below:
Viable cell density (VCD) and viability were measured daily starting on day 3. Spent medium samples were collected on days 3-10 and were subjected to titer analysis. Viable cell densities were used to calculate cumulative viable cell densities, which were along with cumulative titer values used to calculate specific productivities (qP). Every value shown is an average of duplicates.

[1] = test system: recombinant cell line producing MAb E; test: ATF bioreactors, high mannose analysis (RP-HPLC/MS); type: cell-based
Protocol: The applicability of using monensin to modulate high mannose levels in a large scale, controlled production setting was evaluated using a recombinant cell line producing MAb E in alternating tangential flow (ATF) bioreactors. MAb E cells grown in growth medium for the seed train were used to inoculate the N-1 bioreactor at 6×10^5 cells/ml in growth medium. The cells from N-1 bioreactor were then used to inoculate three, 2 L production bioreactors (N) at 7.5×10^5 cells/ml in base perfusion medium (referred to as control, Ra, and Rb bioreactors).
The production bioreactors were grown for 20 days at pH 7.00, 36° C., 30% DO and 400 rpm agitation. These production tanks were run with the ATF system starting on day 3 with 0.5 vol/day perfusion rate, which was increased to 0.6 vol/day, 0.8352 vol/day and 1 vol/day on day 6, 7 and 8, respectively. Glucose levels were maintained separately at 5 g/L since the perfusion medium was prepared without glucose.
Antifoam was also added into the tank as needed, while 1M Sodium Carbonate was used to maintain pH at the desired setpoint. Daily tank samples were collected for the measurement of various cell culture parameters as well as for the titer and high mannose analyses.
Sixty micrograms of daily MAb E samples collected from ATF bioreactors were digested into the Fc/2 and Fab′2 with 60 units of the IdeS enzyme (fabRICATOR, Genovis, Lund, Sweden) in 50 mM Sodium Phosphate, 150 mM NaCl, pH 6.6 with incubation in a 37° C. water bath for 30 minutes. The digested samples were then reduced in 4M Guanidine Hydrochloride 50 mM Tris, pH 8.3 with 50 mM DTT followed by incubation in a 55° C. heat block for 10 minutes resulting in reduction to Fc/2, LC and Fd.
Following digestion and reduction, samples were analyzed immediately by RP-HPLC/MS.
Analysis was performed using Waters Acquity Ultra-Performance liquid chromatography (UPLC) system (Waters, Milford, Mass.) coupled to an Agilent MST Time of Flight (TOF) mass spectrometer (Agilent Technologies, Santa Clara, Calif.). The digested and reduced samples were separated on a reversed-phased Waters BEH Phenyl column (1.7 micron particle size, 2.1×150 mm; Waters, Milford, Mass.) maintained at 80° C. […]
Five micrograms of each sample was injected and eluted at a flow rate of 0.5 mL/min with the following gradient: 30% B was held for 2.5 minutes followed by a gradient from 30% to 45% B over a duration of 5 minutes, followed by a gradient from 45% to 100% B over 0.5 minutes; B was held at 100% for 4 minutes, followed by a gradient of 100% to 30% B over 0.1 minutes, and then held at 30% B for the remaining 2.9 minutes. The UV elution was also monitored at a wavelength of 220 nm. […] Ion intensities of the deconvoluted peaks were used for quantification of the glycan species.

[2] = increasing monensin (to 100 nM)
[3] = 500 nM monensin for ~22 hours from day 8, MAb E

Compound: CC[C@@]1([C@@H]2O[C@@H]([C@H]3O[C@@](O)(CO)[C@H](C)C[C@@H]3C)C[C@@H]2C)CC[C@H]([C@]2(C)CC[C@]3(C[C@H](O)[C@@H](C)[C@@H]([C@@H](C)[C@@H](OC)[C@H](C)C(=O)O)O3)O2)O1 [monensin]
- Golgi morphology (GM130 staining) (MAb C producing cells): punctate distribution of GM130 protein
- Golgi morphology (GM130 staining) (MAb A producing cells): No morphological difference
- effect on cell growth (Cells producing MAb D; MAb D cells, mock perfusion): similar, though not as pronounced, negative growth impact
- effect on titer and specific productivity (Cells producing MAb D; MAb D cells, mock perfusion): slightly decreased the titer of MAb D cells but had no effect on specific productivity
- CVCD (Cells producing MAb D; constant monensin 25 nM): 104 10^6 c-day/ml
- Cumulative Titer (Cells producing MAb D; constant monensin 25 nM): 4.5 g/L
- End of Production Viability (Cells producing MAb D; constant monensin 25 nM): 68%
- qP (Cells producing MAb D; constant monensin 25 nM): 43 pg/c/d
- CVCD (Cells producing MAb D; [2]): 89 10^6 c-day/ml
- Cumulative Titer (Cells producing MAb D; [2]): 3.6 g/L
- End of Production Viability (Cells producing MAb D; [2]): 53%
- qP (Cells producing MAb D; [2]): 41 pg/c/d
- high mannose levels, initial spike [1, 3]: 35-50%
- increase in the levels of high mannose glycans on the recombinant antibodies [1, 3]: 9-10 fold
- high mannose levels on the day of the harvest ([1]; after flushing out of monensin by perfusion, MAb E): 15-17%
- produced antibodies containing high mannose glycans at peak ([1]; day 10, 500 nM monensin for ~22 hours from day 8, from predicted and measured levels): 89%
